Reference: patent US9945862B2, “Biomarkers for predicting and assessing responsiveness of thyroid and kidney cancer subjects to lenvatinib compounds” (Eisai R&D Management Co., Ltd., priority 2011, dated 2018)

Legend:
[1] = system: differentiated thyroid cancer patients; test: Multivariate prediction models of PFS combining mutations and blood biomarkers (Cox proportional hazards model, hazard threshold, log rank test); format: in vivo, human; conditions: pre-treatment
Description: All factors (i.e., mutations, thyroglobulin, cytokine, chemokine and angiogenic factors) were used as independent variables of interest, that is, as biomarker candidates. PFS was used as a dependent variable, that is, as one of the clinical outcomes, in this analysis. Firstly, all factors were screened according to p-values calculated by Cox proportional hazards model with single factor. Secondly, all combinations of the screened factors were tested by Cox proportional hazards model to find significant factors in all combinations of the factors. Combinations in which all factors were significant were chosen for further analysis. Hazard functions of the combinations of factors defined by their coefficients were obtained from this analysis. Each patient has his/her own hazard value for each model, so that patients can be assigned into two groups when a threshold of hazard is given for a model. After grouping patients, log rank test of progression free survival was performed to test difference of survival curves between two groups (low hazard and high hazard). The best threshold of hazard for each model of combination of factors was identified by sweeping threshold to calculate log rank test p-values and finding a threshold that minimized the smoothed curve constructed from the p-values, which was similar to the approach described in U. Abel, J. Berger and H. Wiebelt, “CRITLEVEL: An Exploratory Procedure for the Evaluation of Quantitative Prognostic Factors”, Methods Inf. Medicine, 23(3):154-6(1984). The best thresholds of the models divided patients into high and low hazard groups. Patients are predicted as longer PFS when their hazard value is lower than the threshold.

[2] = system: differentiated thyroid cancer patients; test: Tumor shrinkage (percent change of sum of diameters of target lesions) in E7080-treated DTC patients; format: in vivo, human
Description: The period during which a patient takes E7080 was artificially divided into different Cycles for ease of evaluation and tracking. Patients received E7080 at a dose of 24 mg oral once daily in 28 day cycles. For analysis purposes, assessments of clinical outcomes were performed at the time of the 9 month and at 14 month minimum follow-up. For the E7080 Thyroid Cancer trial, each Cycle is 28 days (4 weeks) so Day 1-28 is cycle 1; Day 29 is Day 1 of Cycle 2; and Day 57 is Day 1 of Cycle 3. Blood samples were collected for pharmacokinetic (PK) analysis on Cycle 1 Days 1 and 8, Cycle 2 Day 1, and Cycle 3 Day 1. A total of 9 samples per patient were collected as follows: Cycle 1 Day 1: immediately prior to the dose of E7080, and at 0.5 and 2 hours following the first dose of E7080 (post-dose); Cycle 1 Day 8: immediately prior to the dose of E7080; Cycle 2 Day 1: immediately prior to the dose of E7080, 0.5 and 2 hours post-dose; Cycle 3 Day 1: immediately prior to the dose of E7080 and 2 hours post-dose. For analysis of progression free survival, PK parameter was used as a covariate in Cox proportional hazards model.
“Tumor shrinkage” (TS) means percent change of sum of diameters of target lesions, taking as reference the baseline sum diameters.
Also changes in thyroglobulin levels were associated with tumor shrinkage after completion of cycle 2 (56 days after treatment) (Speaman's rank correlation test, Table 8, middle).
Next, the factors associated with tumor shrinkage were investigated (Pearson's correlation coefficient test, Table 11).

With `COc1cc2nccc(Oc3ccc(NC(=O)NC4CC4)c(Cl)c3)c2cc1C(N)=O` [E7080, 4-(3-chloro-4-(cyclopropylaminocarbonyl)aminophenoxy)-7-methoxy-6-quinolinecarboxamide] the “HR (low vs high hazard group, PFS)” value ([1]; prediction model: ANG-2) was 0.545, the “HR (low vs high hazard group, PFS)” value ([1]; prediction model: IL13 + MIP1a) was 1.00E−09 and the “HR (low vs high hazard group, PFS)” value ([1]; prediction model: IL13 + MIP1a + MIP1b) was 0.121. The “HR (low vs high hazard group, PFS)” value ([1]; prediction model: NRAS mutation + ANG-2 (log10(ANg2))) was 0.115, the “HR (low vs high hazard group, PFS)” value ([1]; prediction model: NRAS mutation + ANG-2 (log10(Ang290))) was 0.085 and the “HR (low vs high hazard group, PFS)” value ([1]; prediction model: NRAS mutation + VEGFA + ANG-2 + MIP1b + sVEGFR3) was 2.60E−10. For the same compound, the “HR (low vs high hazard group, PFS)” value ([1]; prediction model: NRAS mutation + VEGFA + MIP1b) was 0.097, the “HR (low vs high hazard group, PFS)” value ([1]; prediction model: NRAS mutation + VEGFA + MIP1b + sVEGFR3) was 0.054 and the “HR (low vs high hazard group, PFS)” value ([1]; prediction model: NRAS mutation, D(NRAS, MU)) was 0.124. For the same compound, the “HR (low vs high hazard group, PFS)” value ([1]; prediction model: VEGFA) was 0.552, the “HR (low vs high hazard group, PFS)” value ([1]; prediction model: VEGFA + ANG-2) was 0.386 and the “HR (low vs high hazard group, PFS)” value ([1]; prediction model: VEGFA + ANG-2 + GCSF) was 0.413. The “HR (low vs high hazard group, PFS)” value ([1]; prediction model: mutation in any of BRAF, KRAS, NRAS + MIP1a) was 0.086, the “HR (low vs high hazard group, PFS)” value ([1]; prediction model: mutation in any of BRAF, KRAS, NRAS + VEGFA + MIP1a + MIP1b + IL-6) was 1.90E−10 and the “HR (low vs high hazard group, PFS)” value ([1]; prediction model: mutation in any of KRAS, NRAS + ANG-2) was 0.083. The “HR (low vs high hazard group, PFS)” value ([1]; prediction model: mutation in any of KRAS, NRAS, D(KRASNRAS, MU)) was 0.205, the “% of tumor shrinkage (Median)” value ([2]; KRAS, NRAS (any of gene) mutation patients) was −44.5% and the “% of tumor shrinkage (Median)” value ([2]; KRAS, NRAS wild type patients) was −31.0%. The “% of tumor shrinkage (Median)” value ([2]; NRAS mutation patients) was −45.5% and the “% of tumor shrinkage (Median)” value ([2]; NRAS wild type patients) was −35.5%.
